# Measurements reported in paper PMC8286831, “Identifying SARS-CoV-2 antiviral compounds by screening for small molecule inhibitors of nsp13 helicase” (Biochemical Journal, 2021).
# Several values for one entry are separate records, joined by “and”; a condition that tells them apart may be missing. Equal values may be shown once. Entries after “also recorded” stand apart in the source; their conditions may differ. Read-outs that look alike come from different tables or passages of the source.
# Key:
# [1] = biological target: T1, SARS-CoV-2 nsp13 helicase (Severe acute respiratory syndrome coronavirus 2, UniProt P0DTD1); assay: biochemical; assay type: biochemical
# [2] = biological target: T2, SARS-CoV-2 RdRp holoenzyme (Severe acute respiratory syndrome coronavirus 2, UniProt P0DTD1); assay: FRET-based RdRp strand displacement assay; assay type: biochemical
# T2 construct: (Sf nsp12-3F/7L8 preincubated with Sf 7H8 at a 1:3 ratio); 3F (3xFlag) (C); made in house; host or cells: 'Sf', read as Spodoptera frugiperda insect cells (my inference from the prefix); details are in Bertolin et al
# [3] = biological target: T1, SARS-CoV-2 nsp13 helicase; assay type: biochemical
# SARS-CoV-2 = assay: microbe, parasite or virus in culture; assay type: cell-based; settings: for EC50: read-out: EC50 viral inhibition
# [4] = RNA (nsp13 substrate), 0.3 mM ATP, 0.02% Tween-20 in RdRp assay buffer, read-out: IC50 nsp13
# [5] = IC50 0.02% Tween-20 + (presence)
# [6] = IC50 0.02% Tween-20 − (absence)
# [7] = RNA (RdRp substrate), 0.3 mM each NTP, 0.02% Tween-20 in RdRp assay buffer
# [8] = read-out: IC50 + 0.02% Tween-20
# [9] = RNA (RdRp substrate), 0.3 mM each NTP, 0.02% Tween-20 in RdRp assay buffer, read-out: IC50 RdRp
# [10] = RNA (nsp13 substrate), 0.3 mM ATP, 0.02% Tween-20 in RdRp assay buffer
# [11] = read-out: IC50 + 0.01% Triton X-100
# [12] = presence or absence of non-ionic detergent
# [13] = read-out: IC50 0.02% Tween-20 + (presence)
# [14] = read-out: IC50 0.02% Tween-20 − (absence)
SMILES,IC50 ([1]; IC50 + 0.02% Tween-20),IC50 ([1]; IC50 No detergent),"IC50 [1, 4]","IC50 [1, 5]","IC50 [1, 6]","IC50 RdRp [2, 7]","IC50 [1, 8]",IC50 ([1]; read-out: IC50 No detergent),"IC50 [2, 9]",also measured
Cc1cc(O[C@@H](CCC(F)(F)F)c2ccc(C(=O)NCCC(=O)O)cc2)cc(C)c1-c1ccc(C(C)(C)C)cc1 [Adomeglivant],103 µM,5.3 µM,> 100 µM,,,,,,,IC50 [2]: 39 µM
CC(C)c1cc(C(C)C)c(CC(=O)NS(=O)(=O)Oc2c(C(C)C)cccc2C(C)C)c(C(C)C)c1 [Avasimibe],13 µM,4 µM,,17 µM,1.3 µM,also inhibited RdRp in a similar fashion,,,,IC50 [2]: 18 µM
O=C1/C(=C/c2ccc(O)c(Br)c2)CN(Cc2ccccc2)C/C1=C\c1ccc(O)c(Br)c1 [CARM1-IN-1],,,> 100 µM,,,,126 µM,4.2 µM,> 100 µM,
CC(C)(C[C@H]1CN(S(=O)(=O)c2cccc(C(F)(F)F)c2)c2cc(-c3cc(F)cc(OC(F)F)c3)ccc2O1)C(=O)O [Cintirorgon],38 µM,2.3 µM,97 µM,41 µM,2.1 µM,,,,36 µM,
Cc1cc(-c2ccc(N=Nc3c(S(=O)(=O)[O-])cc4cc(S(=O)(=O)[O-])cc(N)c4c3O)c(C)c2)ccc1N=Nc1c(S(=O)(=O)[O-])cc2cc(S(=O)(=O)[O-])cc(N)c2c1O.[Na+].[Na+].[Na+].[Na+] [Diphenyl Blue],,,4 µM,,,,4.7 µM,5.6 µM,5 µM,inhibition of duplex unwinding in gel-based assay [3]: clearly reduced the generation of single-stranded Cy3 strand
CC/C=C\C/C=C\C/C=C\C/C=C\C/C=C\CCCC(=O)O [Eicosapentaenoic acid],69 µM,14 µM,81 µM,,,,,,29 µM,
CCCCCCCC/C=C/CCCCCCCC(=O)O [Elaidic acid],> 250 µM,8.6 µM,,,,No inhibition,,,,"IC50 nsp13 [1, 10]: No inhibition"
Cc1cc(-c2ccc(/N=N/c3ccc4c(S(=O)(=O)O)cc(S(=O)(=O)O)c(N)c4c3O)c(C)c2)ccc1/N=N/c1ccc2c(S(=O)(=O)O)cc(S(=O)(=O)O)c(N)c2c1O [Evans Blue],,1.2 µM,1.5 µM,,,,,,,inhibition of duplex unwinding in gel-based assay [3]: clearly reduced the generation of single-stranded Cy3 strand
NC(=S)N/N=C/c1coc2ccccc2c1=O.[Cl][Cu][Cl] [FPA 124],,,,,,,8.4 µM,8.5 µM,,"inhibition of duplex unwinding in gel-based assay [3]: clearly reduced the generation of single-stranded Cy3 strand; nsp13 inhibition and detergent sensitivity [1]: no detergent sensitivity; also recorded: largely insensitive to detergent addition; IC50 [1, 11]: 8.9 µM; IC50 ([1]; read-out: IC50 -Triton X-100): 9.1 µM; IC50 ([1]; read-out: IC50 against nsp13 in vitro): ~9 µM; EC50 (SARS-CoV-2): 14 µM and ~14 µM"
CC1=C(/C=C/C(C)=C/C=C/C(C)=C/C(=O)Nc2ccc(O)cc2)C(C)(C)CCC1 [Fenretinide],> 250 µM,9.1 µM,,> 250 µM,7.3 µM,No inhibition,,,,"IC50 nsp13 [1, 10]: No inhibition"
CC(C)(Sc1ccc(CCN(CCCCC2CCCCC2)C(=O)NC2CCCCC2)cc1)C(=O)O [GW7647],27 µM,5.9 µM,39 µM,25 µM,2.3 µM,,,,32 µM,
Cc1cc2c(C(C)C)c(O)c(O)c(C=O)c2c(O)c1-c1c(C)cc2c(C(C)C)c(O)c(O)c(C=O)c2c1O [Gossypol],30 µM,1.9 µM,26 µM,31 µM,1.3 µM,,,,,IC50 [2]: 17 µM
COc1cc(C(=O)O)ccc1NC(=O)[C@@H]1N[C@@H](CC(C)(C)C)[C@](C#N)(c2ccc(Cl)cc2F)[C@H]1c1cccc(Cl)c1F [Idasanutlin],,,19 µM,11 µM,2.3 µM,,,,36 µM,
Nc1nc2c(c(=O)[nH]1)N(C=O)C(CNc1ccc(C(=O)N[C@@H](CCC(=O)O)C(=O)O)cc1)CN2 (stereo partly shown) [Leucovorin Calcium],> 250 µM,> 250 µM,,,,No inhibition,,,,"IC50 nsp13 [1, 10]: No inhibition"
"Cc1ccc(F)c(NC(=O)Nc2ccc(-c3cccc4[nH]nc(N)c34)cc2)c1 [Linifanib/ABT-869, Linifanib]",230 µM,26 µM,,,,No inhibition,,,,"IC50 nsp13 [1, 10]: No inhibition"
CCCCC/C=C\C/C=C\CCCCCCCC(=O)O [Linoleic acid],38 µM,11 µM,,36 µM,4.3 µM,No inhibition,,,,"IC50 nsp13 [1, 10]: No inhibition; nsp13 inhibition and detergent sensitivity [1, 12]: strong sensitivity to detergents"
O=c1c(O)c(-c2cc(O)c(O)c(O)c2)oc2cc(O)cc(O)c12 [Myricetin],,,,,,,,,,"inhibition of duplex unwinding in gel-based assay [3]: inhibited nsp13 with less efficiency; nsp13 inhibition and detergent sensitivity [1]: clear inhibition only in the absence of detergent; EC50 (SARS-CoV-2; Severe acute respiratory syndrome coronavirus 2, Vero C1008, 22 h): 32 µM; EC50 (SARS-CoV-2): 31.6 µM"
O=C(Nc1cccc(C(=O)Nc2ccc(S(=O)(=O)[O-])c3cc(S(=O)(=O)[O-])cc(S(=O)(=O)[O-])c23)c1)Nc1cccc(C(=O)Nc2ccc(S(=O)(=O)[O-])c3cc(S(=O)(=O)[O-])cc(S(=O)(=O)[O-])c23)c1.[Na+].[Na+].[Na+].[Na+].[Na+].[Na+] [NF 023],,,0.7 µM,,,,0.92 µM,,,"inhibition of duplex unwinding in gel-based assay [3]: clearly reduced the generation of single-stranded Cy3 strand; nsp13 inhibition and detergent sensitivity [1, 12]: largely insensitive to detergent addition; IC50 [1, 13]: 0.64 µM; IC50 [1, 14]: 0.67 µM; IC50 [1, 11]: 0.51 µM; IC50 ([1]; read-out: IC50 -Triton X-100): 0.33 µM"
CC1(C)CCC(c2ccc(Cl)cc2)=C(CN2CCN(c3ccc(C(=O)NS(=O)(=O)c4ccc(N[C@H](CCN5CCOCC5)CSc5ccccc5)c(S(=O)(=O)C(F)(F)F)c4)cc3)CC2)C1 [Navitoclax],> 250 µM,1.2 µM,> 100 µM,> 250 µM,0.74 µM,,,,92 µM,"IC50 ([1]; IC50 + 0.01% Triton X-100): 7.3 µM; IC50 ([1]; IC50 -Triton X-100): 2.2 µM; nsp13 inhibition and detergent sensitivity [1, 12]: strong sensitivity to detergents"
CCCCCCCC/C=C\CCCCCCCC(=O)O [Oleic acid],58 µM,6.8 µM,,117 µM,14 µM,No inhibition,,,,"IC50 nsp13 [1, 10]: No inhibition"
Cc1nc(N=Nc2cc(S(=O)(=O)[O-])c3cc([N+](=O)[O-])cc(S(=O)(=O)[O-])c3c2)c(COP(=O)([O-])[O-])c(C=O)c1O.[Na+].[Na+].[Na+].[Na+] [PPNDS],,,2.2 µM,,,,1.6 µM,2 µM,0.7 µM,inhibition of duplex unwinding in gel-based assay [3]: clearly reduced the generation of single-stranded Cy3 strand
COc1cc(C(N)=O)ccc1NC(=O)[C@@H]1N[C@@H](CC(C)(C)C)[C@@]2(C(=O)Nc3cc(Cl)ccc32)[C@H]1c1cccc(Cl)c1F [RO8994],,,,,,No inhibition,> 250 µM,2.9 µM,,IC50 nsp13 [1]: No inhibition
CCC(CC)COC(=O)[C@H](C)N[P@](=O)(OC[C@H]1O[C@@](C#N)(c2ccc3c(N)ncnn23)[C@H](O)[C@@H]1O)Oc1ccccc1 [Remdesivir],,,,,,,,,,"inhibition at 1 µM (SARS-CoV-2; Severe acute respiratory syndrome coronavirus 2, Vero C1008, 1 µM remdesivir alone, Vero E6 cells, read-out: inhibition of viral infection): < 20%"
COc1cccc(NC(=O)/C=C/c2ccc(Cl)cc2)c1 [SB-366791],,,,,,No inhibition,> 250 µM,> 250 µM,,"IC50 nsp13 [1, 10]: No inhibition"
C=CCn1c(CSc2ccccc2[N+](=O)[O-])n[nH]c1=S [SSYA10-001],,,,,,,28 µM,7.5 µM,,"inhibition of duplex unwinding in gel-based assay [3]: inhibited nsp13 with less efficiency; nsp13 inhibition and detergent sensitivity [1]: moderate sensitivity to detergent; IC50 [1, 11]: 21 µM; IC50 ([1]; read-out: IC50 -Triton X-100): 14 µM; EC50 (SARS-CoV-2): 81 µM and 80.5 µM"
O=C1CC(=O)c2c(Cl)c(Cl)c(Cl)c(Cl)c21 [TCID],,,,,,,24 µM,8.1 µM,35 µM,"IC50 [1, 13]: 15 µM; IC50 [1, 14]: 1.9 µM; IC50 ([1]; read-out: IC50 nsp13): 21 µM"
CC(C)c1ccccc1Cc1cc(C(=O)Nc2ccc(S(=O)(=O)c3ccccc3C(C)(C)C)cc2)c(O)c(O)c1O [TW-37],,,,,,,109 µM,2.8 µM,27 µM,IC50 ([1]; read-out: IC50 nsp13): 39 µM
"CC1(C)CCC(CN2CCN(c3ccc(C(=O)NS(=O)(=O)c4ccc(NCC5CCOCC5)c([N+](=O)[O-])c4)c(Oc4cnc5[nH]ccc5c4)c3)CC2)=C(c2ccc(Cl)cc2)C1 [Venetoclax/ABT-199, Venetoclax]",> 250 µM,25 µM,,,,No inhibition,,,,"IC50 nsp13 [1, 10]: No inhibition"
COc1cc(C(=O)NS(=O)(=O)c2ccccc2C)ccc1Cc1cn(C)c2ccc(NC(=O)OC3CCCC3)cc12 [Zafirlukast],53 µM and 55 µM,3.6 µM and 6.6 µM,48 µM,50 µM,1.5 µM,,,,,IC50 ([1]; IC50 + 0.01% Triton X-100): 22 µM; IC50 ([1]; IC50 -Triton X-100): 7.4 µM; IC50 [2]: 46 µM
